The test system of the test is PANK2 silenced human neuroblastoma IMR32 cells (PANK2−/−). Nature of the test: Coenzyme A assay in PANK2 silenced cells (LC-MS quantification of free CoA). The format is cell-based. The conditions noted are these: compound added twice (24 h + 24 h), relative to 0.1% DMSO controls. In short, it runs like this: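 Free intracellular CoA was measured by positive-mode LC-MS/MS of 20% TFA extracts, taking 2 μl per 10^6 cells as intracellular volume. Cells were IMR32 with stable lentiviral PANK2 knockdown, dosed twice 24 h apart (48 h total, 0.1% DMSO). Output is fold increase over vehicle.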
On to `COC(=O)CCNC(=O)[C@@H]1O[P@](=O)(OCOC(=O)N[C@@H](CSC(=O)C(C)(C)C)C(=O)O)OCC1(C)C` [2-201, N-(((((2R,4R)-4-((3-methoxy-3-oxopropyl)carbamoyl)-5,5-dimethyl-2-oxido-1,3,2-dioxaphosphinan-2-yl)oxy)methoxy)carbonyl)-S-pivaloyl-L-cysteine], for which the “PANK2−/− CoA (Fold Increase): fold increase in Coenzyme A (CoA) levels relative to controls” value is 0.92 Fold Increase.

Regarding `COC(=O)CCNC(=O)[C@@H]1O[P@](=O)(N2CCOCC2)OCC1(C)C` [compound 135, methyl 3-((2S,4R)-5,5-dimethyl-2-morpholino-2-oxido-1,3,2-dioxaphosphinane-4-carboxamido)propanoate], the “PANK2−/− CoA (Fold Increase): fold increase in Coenzyme A (CoA) levels relative to controls” value amounted to 1.3 Fold Increase.

Turning to `CC(C)OC(=O)OCOP1(=O)OCC(C)(C)[C@H](C(=O)NCCC(=O)O)O1` (stereo partly drawn) [Compound No. 104, 3-((4R)-2-(((isopropoxycarbonyl)oxy)methoxy)-5,5-dimethyl-2-oxido-1,3,2-dioxaphosphinane-4-carboxamido)propanoic acid], the “PANK2−/− CoA (Fold Increase): fold increase in Coenzyme A (CoA) levels relative to controls” value is recorded as 75.24 Fold Increase.

Regarding `COC(=O)CCNC(=O)[C@@H]1O[P@](=O)(Oc2ccc(C#N)cc2)OCC1(C)C` [2-165, methyl 3-((2R,4R)-2-(4-cyanophenoxy)-5,5-dimethyl-2-oxido-1,3,2-dioxaphosphinane-4-carboxamido)propanoate], the “PANK2−/− CoA (Fold Increase): fold increase in Coenzyme A (CoA) levels relative to controls” value is 6.87 Fold Increase.

With `COC(=O)CCNC(=O)[C@@H]1OP(=O)(OCOC(=O)NCCOC(=O)C(C)(C)C)OCC1(C)C` (stereo partly drawn) [2-183, 2-((((((4R)-4-((3-methoxy-3-oxopropyl)carbamoyl)-5,5-dimethyl-2-oxido-1,3,2-dioxaphosphinan-2-yl)oxy)methoxy)carbonyl)amino)ethyl pivalate], the “PANK2−/− CoA (Fold Increase): fold increase in Coenzyme A (CoA) levels relative to controls” value is recorded as 3.5 Fold Increase.

In the case of `COC(=O)CCNC(=O)[C@@H]1O[P@@](=O)(OCCNC(C)=O)OCC1(C)C` [2-115, methyl 3-((2R,4R)-2-(2-acetamidoethoxy)-5,5-dimethyl-2-oxido-1,3,2-dioxaphosphinane-4-carboxamido)propanoate], the “PANK2−/− CoA (Fold Increase): fold increase in Coenzyme A (CoA) levels relative to controls” value is 1.6 Fold Increase.

For the compound `COC(=O)CCNC(=O)[C@@H]1OP(=O)(OCOC(=O)c2ccno2)OCC1(C)C` (stereo partly drawn) [Compound No. 2-141, (((4R)-4-((3-methoxy-3-oxopropyl)carbamoyl)-5,5-dimethyl-2-oxido-1,3,2-dioxaphosphinan-2-yl)oxy)methyl isoxazole-5-carboxylate], the “PANK2−/− CoA (Fold Increase): fold increase in Coenzyme A (CoA) levels relative to controls” value is on record as 7.62 Fold Increase.

In the case of `COC(=O)CCNC(=O)[C@@H]1O[P@@](=O)(OCOC(=O)c2scnc2C)OCC1(C)C` (single isomer, unassigned) [2-149], the “PANK2−/− CoA (Fold Increase): fold increase in Coenzyme A (CoA) levels relative to controls” value stood at 24.48 Fold Increase.

Turning to `COC(=O)CCNC(=O)[C@@H]1O[P@@](=O)(Oc2ccccc2C(=O)OC)OCC1(C)C` [2-117, methyl 2-(((2S,4R)-4-((3-methoxy-3-oxopropyl)carbamoyl)-5,5-dimethyl-2-oxido-1,3,2-dioxaphosphinan-2-yl)oxy)benzoate], the “PANK2−/− CoA (Fold Increase): fold increase in Coenzyme A (CoA) levels relative to controls” value was 1.11 Fold Increase.

On to `COC(=O)CCNC(=O)[C@@H]1O[P@@](=O)(OCOC(=O)c2cnco2)OCC1(C)C` (single isomer, unassigned) [2-151], for which the “PANK2−/− CoA (Fold Increase): fold increase in Coenzyme A (CoA) levels relative to controls” value was 17.56 Fold Increase.

Regarding `COC(=O)CCNC(=O)[C@@H]1OP(=O)(OCOC(=O)NCCOC(=O)[C@@H](N)C(C)C)OCC1(C)C` (stereo partly drawn) [2-195, 2-((((((4R)-4-((3-methoxy-3-oxopropyl)carbamoyl)-5,5-dimethyl-2-oxido-1,3,2-dioxaphosphinan-2-yl)oxy)methoxy)carbonyl)amino)ethyl L-valinate], the “PANK2−/− CoA (Fold Increase): fold increase in Coenzyme A (CoA) levels relative to controls” value is 1.91 Fold Increase.

On to `COC(=O)CCNC(=O)[C@@H]1OP(=O)(N2CCCCC2)OCC1(C)C` (stereo in doubt) [compound 133, methyl 3-((2R,4R)-5,5-dimethyl-2-oxido-2-(piperidin-1-yl)-1,3,2-dioxaphosphinane-4-carboxamido)propanoate], for which the “PANK2−/− CoA (Fold Increase): fold increase in Coenzyme A (CoA) levels relative to controls” value was found to be 1.45 Fold Increase.

Consider `COC(=O)CCNC(=O)[C@@H]1OP(=O)(OCCN2CCOCC2=O)OCC1(C)C` (stereo partly drawn) [2-114, methyl 3-((4R)-5,5-dimethyl-2-oxido-2-(2-(3-oxomorpholino)ethoxy)-1,3,2-dioxaphosphinane-4-carboxamido)propanoate], for which the “PANK2−/− CoA (Fold Increase): fold increase in Coenzyme A (CoA) levels relative to controls” value turned out to be 1.87 Fold Increase.

Turning to `COC(=O)CCNC(=O)[C@@H]1O[P@](=O)(OCOC(=O)c2ccnn2C)OCC1(C)C` [2-185, (((2R,4R)-4-((3-methoxy-3-oxopropyl)carbamoyl)-5,5-dimethyl-2-oxido-1,3,2-dioxaphosphinan-2-yl)oxy)methyl 1-methyl-1H-pyrazole-5-carboxylate], the “PANK2−/− CoA (Fold Increase): fold increase in Coenzyme A (CoA) levels relative to controls” value is reported as 114.15 Fold Increase.

On to `COC(=O)CCNC(=O)[C@@H]1O[P@@](=O)(OCOC(=O)N[C@@H](CSC(=O)C(C)(C)C)C(=O)OCC(=O)c2ccccc2)OCC1(C)C` [2-199, 2-oxo-2-phenylethyl N-(((((2S,4R)-4-((3-methoxy-3-oxopropyl)carbamoyl)-5,5-dimethyl-2-oxido-1,3,2-dioxaphosphinan-2-yl)oxy)methoxy)carbonyl)-S-pivaloyl-L-cysteinate], for which the “PANK2−/− CoA (Fold Increase): fold increase in Coenzyme A (CoA) levels relative to controls” value is recorded as 1.98 Fold Increase.

Turning to `COC(=O)CCNC(=O)[C@@H]1O[P@](=O)(Oc2ccc(C[C@H](N)C(=O)OC)cc2)OCC1(C)C` [2-163, Methyl (S)-2-amino-3-(4-(((2R,4R)-4-((3-methoxy-3-oxopropyl)carbamoyl)-5,5-dimethyl-2-oxido-1,3,2-dioxaphosphinan-2-yl)oxy)phenyl)propanoate], the “PANK2−/− CoA (Fold Increase): fold increase in Coenzyme A (CoA) levels relative to controls” value amounted to 81.21 Fold Increase.

Regarding `COC(=O)CCNC(=O)[C@@H]1O[P@@](=O)(OCn2ccnc2)OCC1(C)C` [2-132, methyl 3-((2S,4R)-2-((1H-imidazol-1-yl)methoxy)-5,5-dimethyl-2-oxido-1,3,2-dioxaphosphinane-4-carboxamido)propanoate], the “PANK2−/− CoA (Fold Increase): fold increase in Coenzyme A (CoA) levels relative to controls” value is 0.93 Fold Increase.

Consider `COC(=O)CCNC(=O)[C@@H]1OP(=O)(N[C@H](C(=O)OC)C2CCCCC2)OCC1(C)C` (stereo partly drawn) [compound 12, methyl 3-((4R)-2-(((S)-1-cyclohexyl-2-methoxy-2-oxoethyl)amino)-5,5-dimethyl-2-oxido-1,3,2-dioxaphosphinane-4-carboxamido)propanoate], for which the “PANK2−/− CoA (Fold Increase): fold increase in Coenzyme A (CoA) levels relative to controls” value turned out to be 1.28 Fold Increase.

Turning to `COC(=O)CCNC(=O)[C@@H]1O[P@@](=O)(Oc2ccc(F)cc2)OCC1(C)C` [2-178, methyl 3-((2S,4R)-2-(4-fluorophenoxy)-5,5-dimethyl-2-oxido-1,3,2-dioxaphosphinane-4-carboxamido)propanoate], the “PANK2−/− CoA (Fold Increase): fold increase in Coenzyme A (CoA) levels relative to controls” value is 2.3 Fold Increase.

Take `CCCC(=O)OCOP1(=O)OCC(C)(C)[C@H](C(=O)NCCC(=O)OC)O1` (stereo partly drawn) [Compound No. 66, (((4R)-4-((3-methoxy-3-oxopropyl)carbamoyl)-5,5-dimethyl-2-oxido-1,3,2-dioxaphosphinan-2-yl)oxy)methyl butyrate]: the “PANK2−/− CoA (Fold Increase): fold increase in Coenzyme A (CoA) levels relative to controls” value is on record as 83.72 Fold Increase.

As to `COC(=O)CCNC(=O)[C@@H]1O[P@@](=O)(Oc2ccc([N+](=O)[O-])cc2)OCC1(C)C` [2-121, methyl 3-((2S,4R)-5,5-dimethyl-2-(4-nitrophenoxy)-2-oxido-1,3,2-dioxaphosphinane-4-carboxamido)propanoate], the “PANK2−/− CoA (Fold Increase): fold increase in Coenzyme A (CoA) levels relative to controls” value is listed as 1.59 Fold Increase.

Take `COC(=O)CCNC(=O)[C@@H]1O[P@@](=O)(OCOC(=O)NC(C)(C)COC(=O)[C@@H](N)C(C)C)OCC1(C)C` [2-158, 2-((((((2S,4R)-4-((3-methoxy-3-oxopropyl)carbamoyl)-5,5-dimethyl-2-oxido-1,3,2-dioxaphosphinan-2-yl)oxy)methoxy)carbonyl)amino)-2-methylpropyl L-valinate]: the “PANK2−/− CoA (Fold Increase): fold increase in Coenzyme A (CoA) levels relative to controls” value worked out at 2.72 Fold Increase.

On to `COC(=O)CCNC(=O)[C@@H]1O[P@](=O)(N[C@@H](C)C(=O)OC)OCC1(C)C` [1-53, methyl 3-((2S,4R)-2-(((S)-1-methoxy-1-oxopropan-2-yl)amino)-5,5-dimethyl-2-oxido-1,3,2-dioxaphosphinane-4-carboxamido)propanoate], for which the “PANK2−/− CoA (Fold Increase): fold increase in Coenzyme A (CoA) levels relative to controls” value was found to be 2.37 Fold Increase.

As for `COC(=O)CCNC(=O)[C@@H]1OP(=O)(OCOC(=O)NC(C)(C)COC(=O)C(C)(C)C)OCC1(C)C` (stereo partly drawn) [2-167, 2-((((((4R)-4-((3-methoxy-3-oxopropyl)carbamoyl)-5,5-dimethyl-2-oxido-1,3,2-dioxaphosphinan-2-yl)oxy)methoxy)carbonyl)amino)-2-methylpropyl pivalate], the “PANK2−/− CoA (Fold Increase): fold increase in Coenzyme A (CoA) levels relative to controls” value was 3.26 Fold Increase.

Regarding `COC(=O)CCNC(=O)[C@@H]1OP(=O)(OCOC(=O)NCCOC(=O)[C@@H](NC(=O)OCc2ccccc2)C(C)C)OCC1(C)C` (stereo partly drawn) [2-181, 2-((((((4R)-4-((3-methoxy-3-oxopropyl)carbamoyl)-5,5-dimethyl-2-oxido-1,3,2-dioxaphosphuian-2-yl)oxy)methoxy)carbonyl)amino) ethyl((benzyloxy)carbonyl)-L-valinate], the “PANK2−/− CoA (Fold Increase): fold increase in Coenzyme A (CoA) levels relative to controls” value is recorded as 49.59 Fold Increase.

On to `COC(=O)CCNC(=O)[C@@H]1OP(=O)(OCOC(=O)c2ccnn2C)OCC1(C)C` (stereo partly drawn) [2-142, (((4R)-4-((3-methoxy-3-oxopropyl)carbamoyl)-5,5-dimethyl-2-oxido-1,3,2-dioxaphosphinan-2-yl)oxy)methyl 1-methyl-1H-pyrazole-5-carboxylate], for which the “PANK2−/− CoA (Fold Increase): fold increase in Coenzyme A (CoA) levels relative to controls” value was 58.1 Fold Increase.

The values above are taken from patent US10364263B2, “Cyclic phosphates and cyclic phosphoramidates for the treatment of neurologic disorders” (Retrophin, Inc., priority 2015, dated 2019).
